Reference: ChEMBL document CHEMBL4840338, “Cudraflavone C from Artocarpus hirsutus as a Promising Inhibitor of Pathogenic, Multidrug-Resistant S. aureus, Persisters, and Biofilms: A New Insight into a Rational Explanation of Traditional Wisdom” (J Nat Prod, 2021)
In brackets after ≈: the same amount, converted by molar mass.

Tests used:
[1] = system: Enterococcus; experiment: Antibacterial activity against vancomycin-resistant Enterococcus NR 31909 assessed as bacterial growth inhibition incubated for 16 to 18 hrs by broth microdilution method; format: functional; conditions: time 16-18 hrs
[2] = system: Acinetobacter baumannii; experiment: Antibacterial activity against Acinetobacter baumannii BAA-1605 ssessed as bacterial growth inhibition in presence of outermembrane permeabilizer, PMBN incubated for 16 to 18 hrs by broth microdilution method; format: functional; conditions: time 16-18 hrs
[3] = system: Acinetobacter baumannii; experiment: Antibacterial activity against Acinetobacter baumannii BAA 1605 assessed as bacterial growth inhibition incubated for 16 to 18 hrs by broth microdilution method; format: functional; conditions: time 16-18 hrs
[4] = system: Staphylococcus aureus; experiment: Antibacterial activity against Staphylococcus aureus ATCC 29213 assessed as bacterial growth inhibition in presence of daptomycin incubated for 24 hrs by checkerboard assay; format: functional
[5] = system: Staphylococcus aureus; experiment: Antibiofilm activity against Staphylococcus aureus ATCC 29213 assessed as reduction in preformed bacterial biofilm at 1XMIC incubated for 24 hrs by crystal violet staining based microtiter plate reader assay; format: functional
[6] = system: Staphylococcus aureus; experiment: Antibacterial activity against Staphylococcus aureus ATCC 29213 assessed as fractional inhibitory concentration in presence of vancomycin incubated for 24 hrs by checkerboard assay; format: functional
[7] = system: Staphylococcus aureus; experiment: Antibacterial activity against methicillin-resistant Staphylococcus aureus NRS 10186 assessed as bacterial growth inhibition incubated for 16 to 18 hrs by broth microdilution method; format: functional; conditions: time 16-18 hrs
[8] = system: Enterococcus; experiment: Antibacterial activity against vancomycin-resistant Enterococcus NR 31903 assessed as bacterial growth inhibition incubated for 16 to 18 hrs by broth microdilution method; format: functional; conditions: time 16-18 hrs
[9] = system: Staphylococcus aureus; experiment: Antibacterial activity against methicillin-resistant Staphylococcus aureus NRS 10198 assessed as bacterial growth inhibition incubated for 16 to 18 hrs by broth microdilution method; format: functional; conditions: time 16-18 hrs
[10] = system: Escherichia coli; experiment: Antibacterial activity against Escherichia coli ATCC 25922 assessed as bacterial growth inhibition in presence of outermembrane permeabilizer, PMBN incubated for 16 to 18 hrs by broth microdilution method; format: functional; conditions: time 16-18 hrs
[11] = system: Staphylococcus aureus; experiment: Antibiofilm activity against Staphylococcus aureus ATCC 29213 assessed as reduction in preformed bacterial biofilm at 10XMIC incubated for 24 hrs by crystal violet staining based microtiter plate reader assay; format: functional
[12] = system: Staphylococcus aureus; experiment: Antibacterial activity against vancomycin-resistant Staphylococcus aureus VRS1 assessed as bacterial growth inhibition incubated for 16 to 18 hrs by broth microdilution method; format: functional; conditions: time 16-18 hrs
[13] = system: Staphylococcus aureus; experiment: Antibacterial activity against Staphylococcus aureus ATCC 29213 assessed as time for post-antibiotic effect at 1XMIC incubated for 1 hr followed by drug wash-out and measured every single 1 hr; format: functional
[14] = system: Staphylococcus aureus; experiment: Antibacterial activity against Staphylococcus aureus ATCC 29213 assessed as fractional inhibitory concentration in presence of levofloxacin incubated for 24 hrs by checkerboard assay; format: functional
[15] = system: Staphylococcus aureus; experiment: Antibacterial activity against Staphylococcus aureus ATCC 29213 assessed as bacterial growth inhibition in presence of meropenem incubated for 24 hrs by checkerboard assay; format: functional
[16] = system: Enterococcus; experiment: Antibacterial activity against vancomycin-susceptible Enterococcus NR 31887 assessed as bacterial growth inhibition incubated for 16 to 18 hrs by broth microdilution method; format: functional; conditions: time 16-18 hrs
[17] = Cytotoxicity against African green monkey Vero cells incubated for 72 hrs by MTT assay; format: cell-based; conditions: chlorocebus sabaeus
[18] = system: Staphylococcus aureus; experiment: Antibacterial activity against Staphylococcus aureus ATCC 29213 assessed as bacterial growth inhibition in presence of linezolid incubated for 24 hrs by checkerboard assay; format: functional
[19] = system: Staphylococcus aureus; experiment: Antibacterial activity against Staphylococcus aureus ATCC 29213 assessed as bacterial growth inhibition in presence of rifampicin incubated for 24 hrs by checkerboard assay; format: functional
[20] = system: Staphylococcus aureus; experiment: Antibacterial activity against Staphylococcus aureus ATCC 29213 assessed as fractional inhibitory concentration in presence of minocycline incubated for 24 hrs by checkerboard assay; format: functional
[21] = system: Enterococcus; experiment: Antibacterial activity against vancomycin-susceptible Enterococcus NR 31885 assessed as bacterial growth inhibition incubated for 16 to 18 hrs by broth microdilution method; format: functional; conditions: time 16-18 hrs
[22] = system: Staphylococcus aureus; experiment: Antibacterial activity against vancomycin-resistant Staphylococcus aureus VRS4 assessed as bacterial growth inhibition incubated for 16 to 18 hrs by broth microdilution method; format: functional; conditions: time 16-18 hrs
[23] = system: Staphylococcus aureus; experiment: Antibacterial activity against Staphylococcus aureus ATCC 29213 assessed as fractional inhibitory concentration in presence of ceftazidime incubated for 24 hrs by checkerboard assay; format: functional
[24] = system: Staphylococcus aureus; experiment: Antibacterial activity against methicillin-resistant Staphylococcus aureus NRS 10100 assessed as bacterial growth inhibition incubated for 16 to 18 hrs by broth microdilution method; format: functional; conditions: time 16-18 hrs
[25] = system: Staphylococcus aureus; experiment: Antibacterial activity against Staphylococcus aureus ATCC 29213 assessed as fractional inhibitory concentration in presence of linezolid incubated for 24 hrs by checkerboard assay; format: functional
[26] = system: Staphylococcus aureus; experiment: Antibacterial activity against methicillin-resistant Staphylococcus aureus NRS 10191 assessed as bacterial growth inhibition incubated for 16 to 18 hrs by broth microdilution method; format: functional; conditions: time 16-18 hrs
[27] = system: Staphylococcus aureus; experiment: Antibacterial activity against Staphylococcus aureus ATCC 29213 infected in mouse J774.A1 assessed as reduction in intracellular bacterial burden at 5XMIC incubated for 24 hrs followed by replating on TSA plate for 24 hrs by intracellular killing assay; format: functional; conditions: time 48 hrs
[28] = system: Staphylococcus aureus; experiment: Synergistic bactericidal activity against Staphylococcus aureus ATCC 29213 assessed as reduction in bacterial load at 1X MIC preincubated for 6 hrs in presence of gentamycin followed by subculturing on TSA plate for 18 to 20 hrs by time-kill assay; format: functional; conditions: time 24-26 hrs
[29] = system: Staphylococcus aureus; experiment: Bactericidal activity against Staphylococcus aureus ATCC 29213 assessed as reduction in bacterial load at 10X MIC preincubated for 1 hr followed by subculturing on TSA plate for 18 to 20 hrs by time-kill assay; format: functional; conditions: time 19-21 hrs
[30] = system: Staphylococcus aureus; experiment: Bactericidal activity against Staphylococcus aureus ATCC 29213 assessed as reduction in bacterial load at 1X MIC preincubated for 6 hrs followed by subculturing on TSA plate for 18 to 20 hrs by time-kill assay; format: functional; conditions: time 24-26 hrs
[31] = system: Staphylococcus aureus; experiment: Antibacterial activity against Staphylococcus aureus ATCC 29213 assessed as bacterial growth inhibition in presence of gentamycin incubated for 24 hrs by checkerboard assay; format: functional
[32] = system: Klebsiella pneumoniae; experiment: Antibacterial activity against Klebsiella pneumoniae BAA-1705 assessed as bacterial growth inhibition incubated for 16 to 18 hrs by broth microdilution method; format: functional; conditions: time 16-18 hrs
[33] = system: Pseudomonas aeruginosa; experiment: Antibacterial activity against Pseudomonas aeruginosa ATCC 27853 assessed as bacterial growth inhibition incubated for 16 to 18 hrs by broth microdilution method; format: functional; conditions: time 16-18 hrs
[34] = system: Enterococcus; experiment: Antibacterial activity against vancomycin-susceptible Enterococcus NR 31884 assessed as bacterial growth inhibition incubated for 16 to 18 hrs by broth microdilution method; format: functional; conditions: time 16-18 hrs
[35] = system: Staphylococcus aureus; experiment: Antibacterial activity against vancomycin-resistant Staphylococcus aureus VRS12 assessed as bacterial growth inhibition incubated for 16 to 18 hrs by broth microdilution method; format: functional; conditions: time 16-18 hrs
[36] = system: Staphylococcus aureus; experiment: Antibacterial activity against methicillin-resistant Staphylococcus aureus NRS 10129 assessed as bacterial growth inhibition incubated for 16 to 18 hrs by broth microdilution method; format: functional; conditions: time 16-18 hrs
[37] = system: Enterococcus; experiment: Antibacterial activity against vancomycin-susceptible Enterococcus NR 31886 assessed as bacterial growth inhibition incubated for 16 to 18 hrs by broth microdilution method; format: functional; conditions: time 16-18 hrs
[38] = system: Staphylococcus aureus; experiment: Antibacterial activity against Staphylococcus aureus ATCC 29213 assessed as fractional inhibitory concentration in presence of meropenem incubated for 24 hrs by checkerboard assay; format: functional
[39] = system: Staphylococcus aureus; experiment: Antibacterial activity against Staphylococcus aureus ATCC 29213 assessed as bacterial growth inhibition in presence of ceftazidime incubated for 24 hrs by checkerboard assay; format: functional

With `CC(C)=CCc1c(O)cc2oc(-c3ccc(O)cc3O)c(CC=C(C)C)c(=O)c2c1O` [CUDRAFLAVONE C] as the compound, how does the MIC [1] read?
Its MIC is 4 µg/mL (≈ 9.47 µM).

And the MIC [2]?
Its MIC is 4 µg/mL.

What about the MIC [3] of the same compound?
Its MIC is > 64 µg/mL.

And the MIC [4]?
Its MIC is 2 µg/mL.

And the “inhibition (INH)” value [5]?
Its value is 8%.

What about the FIC [6] of the same compound?
The FIC was 1.5.

What about the MIC [7] of the same compound?
Its MIC is 4 µg/mL (≈ 9.47 µM).

And the MIC [8]?
The MIC was 4 µg/mL (≈ 9.47 µM).

And the MIC [9]?
Its MIC is 4 µg/mL (≈ 9.47 µM).

And the MIC [10]?
The MIC was 1 µg/mL.

What about the “inhibition (INH)” value [11] of the same compound?
Its value is 30.4%.

What about the MIC [12] of the same compound?
The MIC was 4 µg/mL (≈ 9.47 µM).

And the Time [13]?
The Time was 2 h.

What about the FIC [14] of the same compound?
Its FIC is 1.5.

What about the MIC [15] of the same compound?
The MIC was 2 µg/mL.

What about the MIC [16] of the same compound?
Its MIC is 4 µg/mL (≈ 9.47 µM).

What about the CC50 at 72 h [17] of the same compound?
Its CC50 at 72 h is 50 µg/mL (≈ 118 µM).

What about the MIC [18] of the same compound?
The MIC was 2 µg/mL.

What about the MIC [19] of the same compound?
The MIC was 2 µg/mL.

What about the FIC [20] of the same compound?
The FIC was 1.5.

And the MIC [21]?
The MIC was 4 µg/mL (≈ 9.47 µM).

What about the MIC [22] of the same compound?
The MIC was 4 µg/mL (≈ 9.47 µM).

And the FIC [23]?
The FIC was 1.5.

And the MIC [24]?
The MIC was 4 µg/mL (≈ 9.47 µM).

What about the FIC [25] of the same compound?
The FIC was 1.5.

And the MIC [26]?
Its MIC is 4 µg/mL (≈ 9.47 µM).

And the Activity [27]?
Its Activity is 2 log10CFU/ml.

What about the Activity [28] of the same compound?
Its Activity is 9 log10CFU/ml.

And the Activity [29]?
The Activity was 5 log10CFU/ml.

And the Activity [30]?
The Activity was 4 log10CFU/ml.

What about the MIC [31] of the same compound?
The MIC was 0.06 µg/mL.

What about the MIC [32] of the same compound?
The MIC was > 64 µg/mL.

What about the MIC [33] of the same compound?
The MIC was > 64 µg/mL.

What about the MIC [34] of the same compound?
The MIC was 4 µg/mL (≈ 9.47 µM).

What about the MIC [35] of the same compound?
The MIC was 4 µg/mL (≈ 9.47 µM).

What about the MIC [36] of the same compound?
The MIC was 4 µg/mL (≈ 9.47 µM).

And the MIC [37]?
Its MIC is 4 µg/mL (≈ 9.47 µM).

What about the FIC [38] of the same compound?
Its FIC is 1.5.

And the MIC [39]?
Its MIC is 2 µg/mL.
